Reference: PubChem BioAssay AID180 (DTP/NCI, 2004)
Several values for one entry are separate records, joined by “and”; a condition that tells them apart may be missing. Equal entries are not always repeated.

Test system: BDF1 mice, Adenocarcinoma 755 s.c., tumor weight T/C
Test: NCI In Vivo Anticancer Drug Screen. Data for tumor model Adenocarcinoma 755 (subcutaneous) in B6D2F1 (BDF1) mice
Conditions: endpoint: mean tumor weight, higher = larger tumour
Method in brief: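 Tumor-bearing mice receive test compound while controls get vehicle alone. Antitumor effect is scored from survival or tumor dimensions as a T/C quotient.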

[1] = dose: 0.5 mg/kg/injection, schedule: Q01DX011 (ip), vehicle: saline

Cn1cnc([N+](=O)[O-])c1Sc1ncnc2nc[nH]c12
T/C (dose: 0.03 mg/kg/injection, schedule: Q01DX011 (oral), vehicle: other): 79 % of control | T/C (dose: 0.06 mg/kg/injection, schedule: Q01DX011 (oral), vehicle: other): 63 % of control | T/C (dose: 0.12 mg/kg/injection, schedule: Q01DX011 (oral), vehicle: other): 48 % of control | T/C (dose: 0.25 mg/kg/injection, schedule: Q01DX006 (iv), vehicle: other): 64 % of control | T/C (dose: 0.25 mg/kg/injection, schedule: Q01DX011 (oral), vehicle: other): 36 % of control | T/C (dose: 0.5 mg/kg/injection, schedule: Q01DX006 (iv), vehicle: other): 58 % of control | T/C (dose: 0.5 mg/kg/injection, schedule: Q01DX011 (oral), vehicle: other): 40 % of control | T/C (dose: 1.0 mg/kg/injection, schedule: Q01DX006 (iv), vehicle: other): 16 % of control | T/C (dose: 1.0 mg/kg/injection, schedule: Q01DX011 (oral), vehicle: other): 5 % of control and 10 % of control | T/C (dose: 2.0 mg/kg/injection, schedule: Q01DX006 (iv), vehicle: other): 9 % of control | T/C (dose: 2.0 mg/kg/injection, schedule: Q01DX011 (ip), vehicle: other): 3 % of control | T/C (dose: 2.5 mg/kg/injection, schedule: Q01DX011 (ip), vehicle: methylcellulose (MC)): 15 % of control and 36 % of control | T/C (dose: 2.5 mg/kg/injection, schedule: Q01DX011 (oral), vehicle: other): 2 % of control | T/C (dose: 3.1 mg/kg/injection, schedule: Q01DX001 (ip), vehicle: other): 56 % of control | T/C (dose: 4.0 mg/kg/injection, schedule: Q01DX006 (iv), vehicle: other): 3 % of control | T/C (dose: 4.0 mg/kg/injection, schedule: Q01DX011 (im), vehicle: other): 3 % of control | T/C (dose: 4.0 mg/kg/injection, schedule: Q01DX011 (iv), vehicle: other): 17 % of control | T/C (dose: 4.0 mg/kg/injection, schedule: Q01DX011 (sc), vehicle: other): 1 % of control | T/C (dose: 4.0 mg/kg/injection, schedule: Q#A X022 (ip), vehicle: other): 2 % of control | T/C (dose: 5.0 mg/kg/injection, schedule: Q01DX011 (ip), vehicle: methylcellulose (MC)): 4 % of control and 7 % of control | T/C (dose: 6.3 mg/kg/injection, schedule: Q01DX001 (ip), vehicle: other): 52 % of control | T/C (dose: 8.0 mg/kg/injection, schedule: Q01DX011 (im), vehicle: other): 1 % of control | T/C (dose: 8.0 mg/kg/injection, schedule: Q01DX011 (iv), vehicle: other): 2 % of control | T/C (dose: 9.5 mg/kg/injection, schedule: Q01DX011 (ip), vehicle: methylcellulose (MC)): 2 % of control and 8 % of control | T/C (dose: 10.0 mg/kg/injection, schedule: Q01DX011 (ip), vehicle: methylcellulose (MC)): 4 % of control and 7 % of control | T/C (dose: 12.0 mg/kg/injection, schedule: Q03DX004 (ip), vehicle: other): 2 % of control | T/C (dose: 12.5 mg/kg/injection, schedule: Q01DX001 (ip), vehicle: other): 28 % of control | T/C (dose: 16.0 mg/kg/injection, schedule: Q01DX011 (iv), vehicle: other): 1 % of control | T/C (dose: 19.0 mg/kg/injection, schedule: Q01DX011 (ip), vehicle: methylcellulose (MC)): 2 % of control | T/C (dose: 20.0 mg/kg/injection, schedule: Q01DX011 (oral), vehicle: other): 7 % of control | T/C (dose: 25.0 mg/kg/injection, schedule: Q01DX001 (ip), vehicle: other): 1 % of control and 2 % of control and 20 % of control | T/C (dose: 28.0 mg/kg/injection, schedule: Q07DX002 (ip), vehicle: other): 17 % of control | T/C (dose: 38.0 mg/kg/injection, schedule: Q01DX011 (ip), vehicle: methylcellulose (MC)): 2 % of control | T/C (dose: 40.0 mg/kg/injection, schedule: Q01DX011 (oral), vehicle: other): 9 % of control | T/C (dose: 50.0 mg/kg/injection, schedule: Q01DX001 (ip), vehicle: other): 41 % of control | T/C (dose: 56.0 mg/kg/injection, schedule: Q07DX002 (ip), vehicle: other): 3 % of control | T/C (dose: 96.0 mg/kg/injection, schedule: Q03DX004 (ip), vehicle: other): 1 % of control | T/C (dose: 100.0 mg/kg/injection, schedule: Q01DX001 (ip), vehicle: other): 1 % of control | T/C (dose: 112.0 mg/kg/injection, schedule: Q07DX002 (ip), vehicle: other): 8 % of control | T/C (dose: 200.0 mg/kg/injection, schedule: Q01DX001 (ip), vehicle: other): 45 % of control

C[C@]1(O)CC[C@H]2[C@@H]3CC[C@@H]4CC(=O)CC[C@]4(C)[C@@]3(F)C(=O)C[C@@]21C
T/C (dose: 200.0 mg/kg/injection, schedule: Q01DX011 (sc), vehicle: steriod suspending solution): 72 % of control | T/C (dose: 400.0 mg/kg/injection, schedule: Q01DX011 (sc), vehicle: steriod suspending solution): 117 % of control

COc1cc2c(c(OC)c1OC)-c1ccc(N)c(=O)cc1[C@@H](NC(C)=O)CC2
T/C [1]: 98 % of control | T/C (dose: 2.0 mg/kg/injection, schedule: Q01DX011 (ip), vehicle: saline): 32 % of control and 47 % of control | T/C (dose: 4.0 mg/kg/injection, schedule: Q01DX011 (ip), vehicle: saline): 15 % of control and 37 % of control

CCCCCCSc1ncnc2nc[nH]c12
T/C (dose: 31.0 mg/kg/injection, schedule: Q01DX011 (ip), vehicle: other): 93 % of control | T/C (dose: 62.0 mg/kg/injection, schedule: Q01DX011 (ip), vehicle: other): 35 % of control | T/C (dose: 125.0 mg/kg/injection, schedule: Q01DX011 (ip), vehicle: other): 2 % of control | T/C (dose: 250.0 mg/kg/injection, schedule: Q01DX011 (ip), vehicle: other): 1 % of control | T/C (dose: 300.0 mg/kg/injection, schedule: Q01DX010 (ip), vehicle: other): 5 % of control | T/C (dose: 400.0 mg/kg/injection, schedule: Q01DX010 (ip), vehicle: other): 3 % of control

C1CN1c1nc(N2CC2)nc(N2CC2)n1
T/C (dose: 0.03 mg/kg/injection, schedule: Q01DX011 (ip), vehicle: carboxymethylcellulose (CMC)): 90 % of control | T/C (dose: 0.05 mg/kg/injection, schedule: Q01DX011 (ip), vehicle: carboxymethylcellulose (CMC)): 80 % of control | T/C (dose: 0.1 mg/kg/injection, schedule: Q01DX011 (ip), vehicle: carboxymethylcellulose (CMC)): 36 % of control | T/C (dose: 0.1 mg/kg/injection, schedule: Q02DX011 (ip), vehicle: carboxymethylcellulose (CMC)): 65 % of control | T/C (dose: 0.2 mg/kg/injection, schedule: Q02DX011 (ip), vehicle: carboxymethylcellulose (CMC)): 49 % of control | T/C [1]: 8 % of control | T/C (dose: 49.0 micrograms/kg/injection, schedule: Q01DX011 (ip), vehicle: carboxymethylcellulose (CMC)): 86 % of control | T/C (dose: 67.0 micrograms/kg/injection, schedule: Q01DX011 (ip), vehicle: carboxymethylcellulose (CMC)): 213 % of control | T/C (dose: 98.0 micrograms/kg/injection, schedule: Q01DX011 (ip), vehicle: carboxymethylcellulose (CMC)): 88 % of control | T/C (dose: 134.0 micrograms/kg/injection, schedule: Q01DX011 (ip), vehicle: carboxymethylcellulose (CMC)): 101 % of control | T/C (dose: 150.0 micrograms/kg/injection, schedule: Q01DX011 (ip), vehicle: saline): 63 % of control | T/C (dose: 260.0 micrograms/kg/injection, schedule: Q01DX011 (ip), vehicle: carboxymethylcellulose (CMC)): 57 % of control and 77 % of control | T/C (dose: 268.0 micrograms/kg/injection, schedule: Q01DX011 (ip), vehicle: carboxymethylcellulose (CMC)): 82 % of control | T/C (dose: 300.0 micrograms/kg/injection, schedule: Q01DX011 (ip), vehicle: saline): 33 % of control | T/C (dose: 536.0 micrograms/kg/injection, schedule: Q01DX011 (ip), vehicle: carboxymethylcellulose (CMC)): 18 % of control | T/C (dose: 600.0 micrograms/kg/injection, schedule: Q01DX011 (ip), vehicle: saline): 7 % of control

O=C(Nc1ccc(C2=NCCCN2)cc1)c1ccc(NC(=O)c2ccc(C3=NCCCN3)cc2)cc1
T/C (dose: 2.0 mg/kg/injection, schedule: Q01DX011 (ip), vehicle: carboxymethylcellulose (CMC)): 89 % of control | T/C (dose: 4.0 mg/kg/injection, schedule: Q01DX011 (ip), vehicle: carboxymethylcellulose (CMC)): 63 % of control | T/C (dose: 8.0 mg/kg/injection, schedule: Q01DX011 (ip), vehicle: carboxymethylcellulose (CMC)): 53 % of control

Cn1c(=O)c2[nH]c(NN)nc2n(C)c1=O
T/C (dose: 25.0 mg/kg/injection, schedule: Q01DX011 (ip), vehicle: methylcellulose (MC)): 66 % of control

Nc1nc(Br)c2ncn(C3OC(CO)C(O)C3O)c2n1 (stereo unspecified)
T/C (dose: 30.0 mg/kg/injection, schedule: Q01DX011 (ip), vehicle: carboxymethylcellulose (CMC)): 107 % of control | T/C (dose: 60.0 mg/kg/injection, schedule: Q01DX011 (ip), vehicle: carboxymethylcellulose (CMC)): 86 % of control | T/C (dose: 120.0 mg/kg/injection, schedule: Q01DX011 (ip), vehicle: carboxymethylcellulose (CMC)): 106 % of control | T/C (dose: 240.0 mg/kg/injection, schedule: Q01DX011 (ip), vehicle: carboxymethylcellulose (CMC)): 103 % of control

CCC1CN1P(=S)(N1CC1CC)N1CC1CC (stereo unspecified)
T/C (dose: 28.0 mg/kg/injection, schedule: Q01DX011 (ip), vehicle: saline): 104 % of control | T/C (dose: 56.0 mg/kg/injection, schedule: Q01DX011 (ip), vehicle: saline): 28 % of control | T/C (dose: 113.0 mg/kg/injection, schedule: Q01DX011 (ip), vehicle: saline): 8 % of control

c1cc[nH]c1
T/C (dose: 40.0 mg/kg/injection, schedule: Q01DX011 (ip), vehicle: carboxymethylcellulose (CMC)): 101 % of control | T/C (dose: 80.0 mg/kg/injection, schedule: Q01DX011 (ip), vehicle: carboxymethylcellulose (CMC)): 68 % of control | T/C (dose: 160.0 mg/kg/injection, schedule: Q01DX011 (ip), vehicle: carboxymethylcellulose (CMC)): 113 % of control
